31 compounds from patent US20220002314A1 (priority 2018, published 2022) can be followed below.

pKi: −log10 of the molar value. Like-named read-outs stand apart in the source and are kept apart here. A value given as a limit tells only on which side of the number the result lay.

Assay [1] has as its target Human α2δ-1 subunit of Cav2.2 calcium channel (Homo sapiens, UniProt P54289). The assay can be described thus: biochemical. It is filed as binding.
In the next assay the target is Human μ-opioid receptor (Homo sapiens, UniProt P35372). The assay can be described thus: biochemical. The format is binding.
Sequence of Human μ-opioid receptor (P35372 whole entry): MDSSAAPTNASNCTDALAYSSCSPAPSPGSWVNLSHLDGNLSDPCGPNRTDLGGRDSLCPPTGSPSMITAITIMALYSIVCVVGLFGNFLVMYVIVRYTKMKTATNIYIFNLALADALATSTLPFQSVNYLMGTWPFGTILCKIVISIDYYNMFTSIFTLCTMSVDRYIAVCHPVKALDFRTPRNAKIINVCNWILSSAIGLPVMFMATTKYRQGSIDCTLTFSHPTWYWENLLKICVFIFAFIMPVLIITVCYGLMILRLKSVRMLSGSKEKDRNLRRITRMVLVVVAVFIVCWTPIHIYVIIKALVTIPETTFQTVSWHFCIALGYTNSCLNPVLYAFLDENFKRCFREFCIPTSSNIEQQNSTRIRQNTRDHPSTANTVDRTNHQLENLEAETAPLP

Sequence of Human α2δ-1 subunit of Cav2.2 calcium channel (P54289 25-1103): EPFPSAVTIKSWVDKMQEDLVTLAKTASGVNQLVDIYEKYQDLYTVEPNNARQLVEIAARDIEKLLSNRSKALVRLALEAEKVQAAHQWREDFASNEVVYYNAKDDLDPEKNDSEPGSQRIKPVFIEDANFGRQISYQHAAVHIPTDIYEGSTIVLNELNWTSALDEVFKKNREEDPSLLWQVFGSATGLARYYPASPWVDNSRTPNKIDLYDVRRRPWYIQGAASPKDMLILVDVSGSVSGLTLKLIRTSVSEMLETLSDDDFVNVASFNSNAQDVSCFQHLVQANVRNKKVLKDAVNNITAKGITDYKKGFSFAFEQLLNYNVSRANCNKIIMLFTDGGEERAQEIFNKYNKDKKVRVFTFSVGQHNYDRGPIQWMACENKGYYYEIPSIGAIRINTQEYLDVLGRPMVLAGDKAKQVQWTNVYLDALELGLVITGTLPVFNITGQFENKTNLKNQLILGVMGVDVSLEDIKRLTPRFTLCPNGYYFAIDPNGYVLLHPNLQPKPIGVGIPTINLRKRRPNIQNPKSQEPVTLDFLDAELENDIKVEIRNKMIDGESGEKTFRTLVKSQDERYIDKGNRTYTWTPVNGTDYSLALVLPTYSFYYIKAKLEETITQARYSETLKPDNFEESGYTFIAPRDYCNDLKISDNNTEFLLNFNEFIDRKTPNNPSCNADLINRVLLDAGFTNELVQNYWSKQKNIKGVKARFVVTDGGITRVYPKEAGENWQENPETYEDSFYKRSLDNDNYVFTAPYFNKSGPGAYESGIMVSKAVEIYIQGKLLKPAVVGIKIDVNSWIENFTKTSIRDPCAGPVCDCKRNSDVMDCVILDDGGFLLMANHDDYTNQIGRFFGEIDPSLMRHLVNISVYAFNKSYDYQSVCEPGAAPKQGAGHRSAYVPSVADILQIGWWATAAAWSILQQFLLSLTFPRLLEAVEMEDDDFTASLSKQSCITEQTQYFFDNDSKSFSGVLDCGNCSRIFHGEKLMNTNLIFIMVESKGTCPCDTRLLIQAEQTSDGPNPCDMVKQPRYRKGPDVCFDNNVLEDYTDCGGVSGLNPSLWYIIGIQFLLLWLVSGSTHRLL

In the case of `CCC[C@H](c1nc2ccc(Cl)cc2c(=O)n1CC)N1CCN[C@@H](C)C1` [Example 103, 6-Chloro-3-ethyl-2-((R)-1-((S)-3-methylpiperazin-1-yl)butyl)quinazolin-4(3H)-one], the pKi in assay [1] was above 6.30; on Human μ-opioid receptor, above 7.00.
For `CCC[C@@H](c1nc2ccc(Cl)cc2c(=O)n1CC)N1CCN[C@@H](C)C1` [Example 104, 6-chloro-3-ethyl-2-((S)-1-((S)-3-methylpiperazin-1-yl)butyl)quinazolin-4(3H)-one], the pKi in assay [1] is below 5.30; on Human μ-opioid receptor it was below 6.30.
For `CCC[C@@H](c1nc2cc(F)c(Br)cc2c(=O)n1CC)N1CCN[C@@H](C)C1` [Example 105, 6-Bromo-3-ethyl-7-fluoro-2-((S)-1-((S)-3-methylpiperazin-1-yl)butyl)quinazolin-4(3H)-one] the same measures were above 6.30 and below 6.30.
In the same order, the values of `CCC[C@H](c1nc2cc(F)c(Br)cc2c(=O)n1CC)N1CCN[C@@H](C)C1` [Example 106, 6-bromo-3-ethyl-7-fluoro-2-((R)-1-((S)-3-methylpiperazin-1-yl)butyl)quinazolin-4(3H)-one] are above 6.30 and above 7.00.
`CCC[C@@H](c1nc2ccc(Br)cc2c(=O)n1CC)N1CCN[C@@H](CCC(=O)O)C1` [Example 107, 3-((S)-4-((S)-1-(6-Bromo-3-ethyl-4-oxo-3,4-dihydroquinazolin-2-yl)butyl)piperazin-2-yl)propanoic acid]: the pKi in assay [1] (read-out: α2δ-1 binding) was below 5.30; at Human μ-opioid receptor (read-out: μ-binding) it was below 6.30.
For `CCC[C@H](c1nc2ccc(Br)cc2c(=O)n1CC)N1CCN[C@@H](CCC(=O)O)C1` [Example 108, 3-((S)-4-((R)-1-(6-bromo-3-ethyl-4-oxo-3,4-dihydroquinazolin-2-yl)butyl)piperazin-2-yl)propanoic acid] the same measures were below 5.30 and below 6.30.
Take `CCC[C@H](c1nc2ccc(Br)cc2c(=O)n1CC)N1CCN(C)[C@H](C)C1` [Example 109, 6-Bromo-2-((R)-1-((R)-3,4-dimethylpiperazin-1-yl)butyl)-3-ethylquinazolin-4(3H)-one]: the pKi in assay [1] is above 6.30; at Human μ-opioid receptor, 6.30 to 7.00.
In the same order, the values of `CCC[C@@H](c1nc2ccc(Br)cc2c(=O)n1CC)N1CCN(C)[C@H](C)C1` [Example 110, 6-bromo-2-((S)-1-((R)-3,4-dimethylpiperazin-1-yl)butyl)-3-ethylquinazolin-4(3H)-one] are below 5.30 and below 6.30.
For `CCC[C@@H](c1nc2ccc(Br)cc2c(=O)n1CC)N1CCN(C)[C@@H](C)C1` [Example 111, 6-Bromo-2-((S)-1-((S)-3,4-dimethylpiperazin-1-yl)butyl)-3-ethylquinazolin-4(3H)-one] the same measures were below 5.30 and below 6.30.
For `CCC[C@H](c1nc2ccc(Br)cc2c(=O)n1CC)N1CCN(C)[C@@H](C)C1` [Example 112, 6-bromo-2-((R)-1-((S)-3,4-dimethylpiperazin-1-yl)butyl)-3-ethylquinazolin-4(3H)-one], the pKi in assay [1] was 5.30 to 6.30; at Human μ-opioid receptor, above 7.00.
`CCCC(c1nc2ccccc2c(=O)n1CCOC)N1C[C@@H](C)N[C@@H](C)C1` (stereo partly drawn) [Example 113, 2-(1-((3S,5R)-3,5-Dimethylpiperazin-1-yl)butyl)-3-(2-methoxyethyl)quinazolin-4(3H)-one]: the pKi was above 6.30 in assay [1] and below 6.30 at Human μ-opioid receptor.
As to `COCCn1c(C(CC(C)C)N2C[C@@H](C)N[C@@H](C)C2)nc2ccccc2c1=O` (stereo partly drawn) [Example 114, 2-(1-((3S,5R)-3,5-dimethylpiperazin-1-yl)-3-methylbutyl)-3-(2-methoxyethyl)quinazolin-4(3H)-one], the pKi in assay [1] (read-out: α2δ-1 binding) was below 5.30; at Human μ-opioid receptor (read-out: μ-binding) it was below 6.30.
For the compound `CCCCC(c1nc2ccccc2c(=O)n1CCOC)N1C[C@@H](C)N[C@@H](C)C1` (stereo partly drawn) [Example 115, 2-(1-((3S,5R)-3,5-dimethylpiperazin-1-yl)pentyl)-3-(2-methoxyethyl)quinazolin-4(3H)-one], the figures for the pKi (in assay [1]; on Human μ-opioid receptor (read-out: μ-binding)) were 5.30 to 6.30 and below 6.30, respectively.
For `COCCn1c(C(CC2CC2)N2C[C@@H](C)N[C@@H](C)C2)nc2ccccc2c1=O` (stereo partly drawn) [Example 116, 2-(2-cyclopropyl-1-((3S,5R)-3,5-dimethylpiperazin-1-yl)ethyl)-3-(2-methoxyethyl)quinazolin-4(3H)-one] the same measures were 5.30 to 6.30 and below 6.30.
In the case of `CCCC(c1nc2ccccc2c(=O)n1CCOC)N1CCNCC1` (centres unmarked) [Example 117, 3-(2-methoxyethyl)-2-(1-(piperazin-1-yl)butyl)quinazolin-4(3H)-one], the pKi is 5.30 to 6.30 in assay [1] and below 6.30 at Human μ-opioid receptor (read-out: μ-binding).
As to `CCCC(c1nc2ccccc2c(=O)n1Cc1ccco1)N1C[C@@H](C)N[C@@H](C)C1` (stereo partly drawn) [Example 118, 2-(1-((3S,5R)-3,5-dimethylpiperazin-1-yl)butyl)-3-(furan-2-ylmethyl)quinazolin-4(3H)-one], the pKi was above 6.30 in assay [1] and below 6.30 on Human μ-opioid receptor.
In the same order, the values of `CCCC(c1nc2ccc(C)cc2c(=O)n1CCOC)N1C[C@@H](C)N[C@@H](C)C1` (stereo partly drawn) [Example 119, 2-(1-((3S,5R)-3,5-dimethylpiperazin-1-yl)butyl)-3-(2-methoxyethyl)-6-methylquinazolin-4(3H)-one] are above 6.30 and below 6.30.
For `CCCC(c1nc2ccc(OC)cc2c(=O)n1CCOC)N1C[C@@H](C)N[C@@H](C)C1` (stereo partly drawn) [Example 120, 2-(1-((3S,5R)-3,5-dimethylpiperazin-1-yl)butyl)-6-methoxy-3-(2-methoxyethyl)quinazolin-4(3H)-one] the same measures were above 6.30 and below 6.30.
In the same order, the values of `CCCC(c1nc2cnccc2c(=O)n1CCOC)N1C[C@@H](C)N[C@@H](C)C1` (stereo partly drawn) [Example 121, 2-(1-((3S,5R)-3,5-dimethylpiperazin-1-yl)butyl)-3-(2-methoxyethyl)pyrido[3,4-d]pyrimidin-4(3H)-one] are above 6.30 and below 6.30.
Turning to `CCCC(c1nc2ccc(Br)cc2c(=O)n1CCC(=O)OCC)N1C[C@@H](C)N[C@@H](C)C1` (stereo partly drawn) [Example 122, ethyl 3-(6-bromo-2-(1-((3S,5R)-3,5-dimethylpiperazin-1-yl)butyl)-4-oxoquinazolin-3(4H)-yl)propanoate], the values for the pKi (in assay [1] (read-out: α2δ-1 binding); at Human μ-opioid receptor (read-out: μ-binding)) were 5.30 to 6.30 and below 6.30, respectively.
With `CCC[C@H](c1nc2ccccc2c(=O)n1CCOC)N1C[C@@H](C)N[C@@H](C)C1` [Example 123, 2-((R)-1-((3S,5R)-3,5-Dimethylpiperazin-1-yl)butyl)-3-(2-methoxyethyl)quinazolin-4(3H)-one], the pKi in assay [1] is above 6.30; on Human μ-opioid receptor it was below 6.30.
For `CCC[C@@H](c1nc2ccccc2c(=O)n1CCOC)N1C[C@@H](C)N[C@@H](C)C1` [Example 124, 2-((S)-1-((3S,5R)-3,5-dimethylpiperazin-1-yl)butyl)-3-(2-methoxyethyl)quinazolin-4(3H)-one], the pKi in assay [1] was 5.30 to 6.30; on Human μ-opioid receptor, below 6.30.
In the same order, the values of `CCCC(c1nc2ccc(Br)cc2c(=O)n1CCC(=O)O)N1C[C@@H](C)N[C@@H](C)C1` (stereo partly drawn) [Example 125, 3-(6-Bromo-2-(1-((3S,5R)-3,5-dimethylpiperazin-1-yl)butyl)-4-oxoquinazolin-3(4H)-yl)propanoic acid] are 5.30 to 6.30 and 6.30 to 7.00.
Regarding `CCCC(c1nc2ccc(Br)cc2c(=O)n1CC(=O)O)N1C[C@@H](C)N[C@@H](C)C1` (stereo partly drawn) [Example 126, 2-(6-bromo-2-(1-((3S,5R)-3,5-dimethylpiperazin-1-yl)butyl)-4-oxoquinazolin-3(4H)-yl)acetic acid], the values for the pKi (in assay [1] (read-out: α2δ-1 binding); on Human μ-opioid receptor (read-out: μ-binding)) were below 5.30 and below 6.30, respectively.
As to `CCCC(c1nc2ccccc2c(=O)n1CCNC)N1C[C@@H](C)N[C@@H](C)C1` (stereo partly drawn) [Example 127, 2-(1-((3S,5R)-3,5-Dimethylpiperazin-1-yl)butyl)-3-(2-(methylamino)ethyl)quinazolin-4(3H)-one], the pKi was 5.30 to 6.30 in assay [1] and below 6.30 at Human μ-opioid receptor (read-out: μ-binding).
With `CCCC(c1nc2ccccc2c(=O)n1CCN(C)C)N1C[C@@H](C)N[C@@H](C)C1` (stereo partly drawn) [Example 128, 3-(2-(Dimethylamino)ethyl)-2-(1-((3S,5R)-3,5-dimethylpiperazin-1-yl)butyl)quinazolin-4(3H)-one], the pKi was 5.30 to 6.30 in assay [1] (read-out: α2δ-1 binding) and below 6.30 on Human μ-opioid receptor (read-out: μ-binding).
For the compound `CCCC(c1nc2ccccc2c(=O)n1CCN(C)CCc1ccccc1)N1C[C@@H](C)N[C@@H](C)C1` (stereo partly drawn) [Example 129, 2-(1-((3S,5R)-3,5-dimethylpiperazin-1-yl)butyl)-3-(2-(methyl(phenethyl)amino)ethyl)quinazolin-4(3H)-one], the pKi in assay [1] (read-out: α2δ-1 binding) was 5.30 to 6.30; at Human μ-opioid receptor (read-out: μ-binding), below 6.30.
Turning to `CCCC(c1nc2ccccc2c(=O)n1CCN(C)CCCc1ccccc1)N1C[C@@H](C)N[C@@H](C)C1` (stereo partly drawn) [Example 130, 2-(1-((3S,5R)-3,5-dimethylpiperazin-1-yl)butyl)-3-(2-(methyl(3-phenylpropyl)amino)ethyl)quinazolin-4(3H)-one], the pKi in assay [1] (read-out: α2δ-1 binding) is 5.30 to 6.30; on Human μ-opioid receptor (read-out: μ-binding), below 6.30.
In the same order, the values of `CCCC(c1nc2ccccc2c(=O)n1CCN(C)C)N1C[C@@H](C)N(C)[C@@H](C)C1` (stereo partly drawn) [Example 131, 3-(2-(Dimethylamino)ethyl)-2-(1-((3S,5R)-3,4,5-trimethylpiperazine-1-yl)butyl)quinazolin-4(3H)-one] are below 5.30 and below 6.30.
With `CCCC(c1nc2ccc(-c3ccncc3)cc2c(=O)n1CC)N1C[C@@H](C)N[C@@H](C)C1` (stereo partly drawn) [Example 132, 2-(1-((3S,5R)-3,5-Dimethylpiperazin-1-yl)butyl)-3-ethyl-6-(pyridin-4-yl)quinazolin-4(3H)-one], the pKi was above 6.30 in assay [1] and below 6.30 at Human μ-opioid receptor.
For `CCCC(c1nc2cc(-c3ccncc3)ccc2c(=O)n1CC)N1C[C@@H](C)N[C@@H](C)C1` (stereo partly drawn) [Example 133, 2-(1-((3S,5R)-3,5-dimethylpiperazin-1-yl)butyl)-3-ethyl-7-(pyridin-4-yl)quinazolin-4(3H)-one] the same measures were above 6.30 and below 6.30.
